Results: publication PMC9851200, “Multiparameter phenotypic screening for endogenous TFEB and TFE3 translocation identifies novel chemical series modulating lysosome function” (Autophagy, 2022)

Experiments:
Assay type in all cases: binding
[1] = molecular target: kinases (KINOMEscan panel) (Homo sapiens, UniProt P22694); details: PRKACB; NEW KINOMEscan
[2] = molecular target: T1, kinases (KINOMEscan panel) (Homo sapiens, UniProt Q6ZN16); details: NEW KINOMEscan
T1 sequence (Q6ZN16 1-1313): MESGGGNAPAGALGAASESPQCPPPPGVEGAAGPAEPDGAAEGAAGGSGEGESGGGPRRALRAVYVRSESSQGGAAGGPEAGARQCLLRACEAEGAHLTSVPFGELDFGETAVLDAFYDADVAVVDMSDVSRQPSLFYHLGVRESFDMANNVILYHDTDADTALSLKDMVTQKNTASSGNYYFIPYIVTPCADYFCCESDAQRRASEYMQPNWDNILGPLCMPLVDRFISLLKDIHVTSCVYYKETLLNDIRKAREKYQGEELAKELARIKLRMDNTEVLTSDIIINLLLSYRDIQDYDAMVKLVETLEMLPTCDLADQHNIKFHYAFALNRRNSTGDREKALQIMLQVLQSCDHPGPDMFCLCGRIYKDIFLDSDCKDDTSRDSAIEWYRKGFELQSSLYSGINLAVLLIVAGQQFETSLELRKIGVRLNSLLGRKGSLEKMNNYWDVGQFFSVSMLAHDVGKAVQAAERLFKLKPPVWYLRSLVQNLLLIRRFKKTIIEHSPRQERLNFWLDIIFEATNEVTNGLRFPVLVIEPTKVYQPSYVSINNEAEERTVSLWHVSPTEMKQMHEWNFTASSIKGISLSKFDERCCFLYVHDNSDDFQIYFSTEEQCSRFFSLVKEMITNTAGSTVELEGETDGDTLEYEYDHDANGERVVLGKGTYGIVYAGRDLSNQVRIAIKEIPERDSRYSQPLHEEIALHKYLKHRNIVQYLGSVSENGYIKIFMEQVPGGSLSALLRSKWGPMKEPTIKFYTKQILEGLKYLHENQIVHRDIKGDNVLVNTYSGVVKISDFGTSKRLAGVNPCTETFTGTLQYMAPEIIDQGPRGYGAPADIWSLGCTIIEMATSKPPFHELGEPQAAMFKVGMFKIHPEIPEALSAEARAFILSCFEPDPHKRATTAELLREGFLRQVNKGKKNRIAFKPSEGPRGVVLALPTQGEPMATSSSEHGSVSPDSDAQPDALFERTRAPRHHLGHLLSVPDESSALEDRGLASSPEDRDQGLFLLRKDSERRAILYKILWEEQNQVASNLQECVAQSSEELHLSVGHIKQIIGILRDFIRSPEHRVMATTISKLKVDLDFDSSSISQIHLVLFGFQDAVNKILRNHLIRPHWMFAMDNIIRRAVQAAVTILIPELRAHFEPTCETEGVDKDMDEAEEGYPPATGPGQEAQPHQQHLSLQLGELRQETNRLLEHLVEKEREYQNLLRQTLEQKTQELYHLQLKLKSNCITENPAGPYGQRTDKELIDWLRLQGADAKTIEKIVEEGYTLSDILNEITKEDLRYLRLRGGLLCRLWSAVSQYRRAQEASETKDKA

[3] = molecular target: kinases (KINOMEscan panel) (Homo sapiens, UniProt P49759); details: kinase CLK1; NEW KINOMEscan
[4] = molecular target: kinases (KINOMEscan panel) (Homo sapiens, UniProt Q9H1R3); details: MYLK2; NEW KINOMEscan
[5] = molecular target: kinases (KINOMEscan panel) (Homo sapiens, UniProt O75716); details: kinase STK16; NEW KINOMEscan
[6] = molecular target: kinases (KINOMEscan panel) (Homo sapiens, UniProt P49840); details: GSK3A; NEW KINOMEscan
[7] = molecular target: T2, kinases (KINOMEscan panel) (Homo sapiens, UniProt P42681); details: kinase TXK; NEW KINOMEscan
T2 sequence (P42681 1-527): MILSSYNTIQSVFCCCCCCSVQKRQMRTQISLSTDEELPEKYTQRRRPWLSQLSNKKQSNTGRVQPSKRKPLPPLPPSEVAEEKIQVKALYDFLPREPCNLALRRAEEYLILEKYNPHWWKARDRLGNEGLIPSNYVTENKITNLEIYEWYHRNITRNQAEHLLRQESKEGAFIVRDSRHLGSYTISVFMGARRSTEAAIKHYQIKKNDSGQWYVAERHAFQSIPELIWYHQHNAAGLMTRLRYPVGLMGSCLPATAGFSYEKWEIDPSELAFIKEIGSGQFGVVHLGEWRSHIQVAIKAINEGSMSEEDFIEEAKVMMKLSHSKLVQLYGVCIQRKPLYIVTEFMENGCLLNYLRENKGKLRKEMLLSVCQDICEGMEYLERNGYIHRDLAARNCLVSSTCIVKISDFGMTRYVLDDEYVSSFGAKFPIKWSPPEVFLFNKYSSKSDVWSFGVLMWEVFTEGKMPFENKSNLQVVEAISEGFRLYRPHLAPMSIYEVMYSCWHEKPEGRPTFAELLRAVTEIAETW

[8] = molecular target: kinases (KINOMEscan panel) (Homo sapiens, UniProt Q9UEW8); details: NEW KINOMEscan
[9] = molecular target: T3, kinases (KINOMEscan panel) (Homo sapiens, UniProt Q9Y616); details: IRAK3; NEW KINOMEscan
T3 sequence (Q9Y616 1-596): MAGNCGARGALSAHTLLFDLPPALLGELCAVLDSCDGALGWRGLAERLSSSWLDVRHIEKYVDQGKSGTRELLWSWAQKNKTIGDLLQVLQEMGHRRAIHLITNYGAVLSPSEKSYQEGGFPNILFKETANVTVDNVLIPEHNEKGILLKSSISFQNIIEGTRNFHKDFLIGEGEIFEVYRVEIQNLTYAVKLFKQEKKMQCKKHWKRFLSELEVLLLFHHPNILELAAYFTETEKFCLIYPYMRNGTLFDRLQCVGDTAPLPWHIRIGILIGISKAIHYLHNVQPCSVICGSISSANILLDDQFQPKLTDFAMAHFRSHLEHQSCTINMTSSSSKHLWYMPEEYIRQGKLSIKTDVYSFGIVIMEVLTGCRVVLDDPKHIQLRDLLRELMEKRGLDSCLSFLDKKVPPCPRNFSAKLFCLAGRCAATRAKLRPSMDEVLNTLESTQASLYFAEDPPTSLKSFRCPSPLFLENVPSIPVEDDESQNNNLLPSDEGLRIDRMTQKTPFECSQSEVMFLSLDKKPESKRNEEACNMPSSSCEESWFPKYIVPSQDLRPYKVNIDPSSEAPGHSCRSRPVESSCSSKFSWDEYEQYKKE

Sequence of kinases (KINOMEscan panel) (Homo sapiens, UniProt O75716) (O75716 whole entry): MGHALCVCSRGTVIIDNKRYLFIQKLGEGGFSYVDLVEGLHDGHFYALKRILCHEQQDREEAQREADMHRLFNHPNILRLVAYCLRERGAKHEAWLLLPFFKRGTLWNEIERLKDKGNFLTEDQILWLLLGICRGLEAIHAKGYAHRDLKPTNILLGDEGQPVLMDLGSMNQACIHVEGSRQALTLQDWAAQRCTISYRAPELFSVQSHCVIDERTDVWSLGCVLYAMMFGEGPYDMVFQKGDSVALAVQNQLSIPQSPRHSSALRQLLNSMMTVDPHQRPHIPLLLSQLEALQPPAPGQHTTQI
Sequence of kinases (KINOMEscan panel) (Homo sapiens, UniProt P49759) (P49759 whole entry): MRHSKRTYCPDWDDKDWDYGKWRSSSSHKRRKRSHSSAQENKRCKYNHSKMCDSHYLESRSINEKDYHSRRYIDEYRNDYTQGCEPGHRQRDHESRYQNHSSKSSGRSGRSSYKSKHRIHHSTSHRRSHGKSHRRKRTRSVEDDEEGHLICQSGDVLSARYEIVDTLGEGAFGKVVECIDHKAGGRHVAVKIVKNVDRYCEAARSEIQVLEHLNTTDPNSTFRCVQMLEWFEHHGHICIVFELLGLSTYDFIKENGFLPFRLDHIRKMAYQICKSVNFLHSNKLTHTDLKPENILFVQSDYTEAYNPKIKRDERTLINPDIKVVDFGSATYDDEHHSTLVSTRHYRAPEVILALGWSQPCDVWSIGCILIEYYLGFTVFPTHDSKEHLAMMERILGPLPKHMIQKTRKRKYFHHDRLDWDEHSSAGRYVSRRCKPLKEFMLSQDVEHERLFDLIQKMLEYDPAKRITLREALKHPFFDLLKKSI
Sequence of kinases (KINOMEscan panel) (Homo sapiens, UniProt Q9H1R3) (Q9H1R3 whole entry): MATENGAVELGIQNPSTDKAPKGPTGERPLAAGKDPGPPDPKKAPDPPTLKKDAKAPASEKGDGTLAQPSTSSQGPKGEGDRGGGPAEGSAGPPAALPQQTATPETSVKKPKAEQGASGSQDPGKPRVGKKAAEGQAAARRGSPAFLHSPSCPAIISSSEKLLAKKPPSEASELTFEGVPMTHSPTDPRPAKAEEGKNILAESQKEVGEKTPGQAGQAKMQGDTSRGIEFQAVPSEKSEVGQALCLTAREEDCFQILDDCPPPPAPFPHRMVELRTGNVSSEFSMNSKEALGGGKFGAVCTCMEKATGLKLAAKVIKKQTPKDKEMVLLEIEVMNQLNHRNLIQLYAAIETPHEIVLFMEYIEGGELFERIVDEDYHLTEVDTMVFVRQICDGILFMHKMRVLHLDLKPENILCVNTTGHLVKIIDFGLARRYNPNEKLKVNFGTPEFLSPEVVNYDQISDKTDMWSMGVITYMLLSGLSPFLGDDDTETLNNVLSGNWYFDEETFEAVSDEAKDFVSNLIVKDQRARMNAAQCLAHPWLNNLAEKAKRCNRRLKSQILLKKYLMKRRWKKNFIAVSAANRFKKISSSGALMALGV
Sequence of kinases (KINOMEscan panel) (Homo sapiens, UniProt P49840) (P49840 whole entry): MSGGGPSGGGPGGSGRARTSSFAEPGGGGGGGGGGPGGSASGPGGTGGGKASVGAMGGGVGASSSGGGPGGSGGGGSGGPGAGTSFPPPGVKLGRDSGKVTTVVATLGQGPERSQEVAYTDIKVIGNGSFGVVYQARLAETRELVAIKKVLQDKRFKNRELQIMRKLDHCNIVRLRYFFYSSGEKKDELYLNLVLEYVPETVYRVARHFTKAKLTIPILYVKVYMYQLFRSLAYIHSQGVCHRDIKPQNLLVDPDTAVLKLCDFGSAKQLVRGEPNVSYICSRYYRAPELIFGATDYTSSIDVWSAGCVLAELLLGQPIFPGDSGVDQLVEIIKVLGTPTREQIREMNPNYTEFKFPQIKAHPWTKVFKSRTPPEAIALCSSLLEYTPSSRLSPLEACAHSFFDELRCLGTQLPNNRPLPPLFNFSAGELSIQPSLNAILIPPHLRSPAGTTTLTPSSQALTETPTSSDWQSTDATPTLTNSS

Row | SMILES | KINOMEscan PRKACB [1] | KINOMEscan MAP3K15 [2] | KINOMEscan CLK1 [3] | KINOMEscan MYLK2 [4] | KINOMEscan STK16 [5] | KINOMEscan GSK3A [6] | KINOMEscan TXK [7] | KINOMEscan STK39 [8] | KINOMEscan IRAK3 [9]
1 | Cc1cccc(-c2nc(Nc3ccc4nn(C)cc4c3)c3ccccc3n2)n1 [NK167] | 1 | 21 | 0 | 0 | 19 | 0 | 3 | 11 | 0
2 | Cc1cccc(-c2nc(N(C)c3ccc4ncsc4c3)c3ccccc3n2)n1 [NK-161] | 6 | 21 | 2 | 9 | 15 | 0 | 0 | 0 | 7
